Laboratory results as given in PMC8741257, “Identification of novel non-toxic and anti-angiogenic α-fluorinated chalcones as potent colchicine binding site inhibitors” (Journal of Enzyme Inhibition and Medicinal Chemistry, 2022).

How the values were obtained:
[1] = tested on: LO2 (human hepatocyte cells); assay: Growth inhibition of normal human cells; format: cell-based; details: triplicate, mean ± SD
Description: (§1) The effect of compound 4c on three types of normal human cell lines including LO2 (human hepatocyte cells), 293 T (human embryonic kidney cell) and THP-1-derived macrophages was then determined.

[2] = tested on: THP-1-derived macrophages; assay: Growth inhibition of normal human cells; format: cell-based; details: Macrophage, triplicate, mean ± SD
Description: as §1

[3] = tested on: 293 T (human embryonic kidney cell); assay: Growth inhibition of normal human cells; format: cell-based; details: HEK-293T, triplicate, mean ± SD
Description: as §1

[4] = tested on: Caspase -3/-7/-9 and PARP in MGC-803 cells; assay: Western blot of apoptosis-related proteins; format: cell-based, human; details: 18, 36 and 72 nM, 48 h
Description: The Caspase family proteins are considered to be critical regulators of cell apoptosis, in which Caspase-3 is one of the most important "executioner" of apoptosis induction, capable of cleaving many important cellular matrices and represent the hallmark of apoptosis. To explore the apoptosis-associated protein alterations, the expression of Caspase -3/-7/-9 and PARP was analysed.
(§2) The protein levels in MGC-803 cells were assessed via western blot analysis. Exponentially growing MGC-803 cells were seeded at a density of 6 × 10^5/dishes and incubated overnight. Then 18, 36, 72nΜ of 4c were added in triplicate for 48 h incubation. After the cells were washed with cold PBS, the supernatant was removed. The supernatant was collected by centrifuging at 12,000 g for 10 min at 4 °C. The protein concentration in the supernatant was determined by using a BSA protein assay kit. Samples were prepared in SDS-PAGE loading buffer after BSA analysis to quantify proteins, then boiled for 10 min at 100 °C. Western blot analyses were conducted after separation by SDS-PAGE electrophoresis and transfer to nitrocellulose filter (NC) membranes. Immunoblotting was performed according to the antibody manufacturers’ recommendations.

MGC-803 cells [5] = assay: Cell cycle distribution (PI, flow cytometry); format: cell-based, human
Excerpt: Most inhibitors of microtubule polymerisation are able to block mitosis in G2/M phase, which ultimately leads to apoptosis by disrupting tubulin-microtubule balance. To elucidate whether the cytotoxicity of 4c was due to cell cycle arrest, flow cytometry analysis and PI marking method were used to evaluate the effects of 4c on the MGC-803 cell cycle distribution. […] A significant difference was also observed when we further evaluated its effects using different time points (Figure 5(C,D)). MGC-803 cells treated with 4c (36 nM) can be arrested in the G2/M phase from 30.37% at 6 h to 45.37% at 24 h.
MGC-803 cells (15 × 10^4 cells/well) were inoculated in 6-well plates and incubated at 37 °C for 24 h, and then treated with 4c (18, 36, 72nΜ). The collected cells were washed with cold PBS and then fixed in 75% ethanol in PBS at −20 °C overnight. The cells were then washed twice with PBS buffer and then stained with 500 μL of […] (PI, 5 mg) staining solution […] for 15 min in the dark. Samples were immediately assayed for DNA content using a flow cytometer (Becton, Dickinson and Company, USA). The percentage of cell cycle phases was analysed by the software provided in the instrument.

[6] = tested on: Tg(flk1: EGFP) zebrafish embryos; assay: Zebrafish angiogenesis assay; format: in vivo
Description: Since zebrafish embryos emerged as a powerful model for studying human diseases, the transgenic zebrafish with green fluorescent protein (GFP) labelled endothelial cells have been used extensively for testing angiogenesis in vivo. In this work, an anti-angiogenetic activity of 4c was confirmed by Tg(flk1: EGFP) zebrafish embryos in vivo assay. Fluorescently labelled 3hpf period embryos were treated with different doses of 4c and incubated at 28.5 °C. Until 30hpf, zebrafish was imaged under a fluorescent microscopy to observe the affection of applied agents on intersegmental vessels (ISVs) development. As shown in the Figure 11, ISVs were clearly observed in newly born zebrafish embryos of solvent-treated control group, which were growing at regular longitudinal and equidistant intervals.
The transgenic flk: enhanced GFP zebrafish embryos were transferred into 6-well plates (n = 30 per well) with 1 ml of aquaculture water (0.2 g/L of Instant Ocean Salt in distilled water) and raised at 28 °C. Then the embryos dechorionated at 12 h post fertilisation (hpf) was treated with the indicated concentrations of 4c or vehicle (DMSO). About 30 embryos were screened for each concentration gradient. At 30hpf, the zebrafish embryos were stripped, anaesthetised, and fixed with agarose gel. The images were taken under the microscope, and the number of blood vessels between the segments was recorded. Results were obtained from three independent determinations and presented as mean ± SD.

[7] = tested on: p-Cdc2, CyclinB1 and P21 in MGC-803 cells; assay: Western blot of G2/M regulatory proteins; format: cell-based, human; details: 18, 36, 72 nM, 48 h
Excerpt: Cdc2 kinase, a member of Ser/Thr protein family, is considered as a driving force of G2/M transition. Activation of Cdc2 catalysed the phosphorylation of a variety of substrate proteins, thus promoting cell transition from G2 phase to M phase. Cyclin B1 plays a vital role to control cell transition from G2 to M phase. P21 also effectively regulates cell cycle progress by increasing the intracellular G2/M phase ratio. Therefore, the expression of cell cycle checkpoint protein was investigated.
as §2

MGC-803 cells [8] = assay: Wound healing migration assay; format: cell-based, human; details: 72 nM, after 48 h, control approximately 64%
Description: Metastasis is one of the leading causes of morbidity and mortality of cancer patients. Microtubules-targeting inhibitors have also been reported to interfere with cell migration and invasion. Accordingly, the in vitro would healing assay and Transwell assays were performed to investigate the inhibitory effect of compound 4c on the migration and invasion of MGC-803 cells. As shown Figure 8(A,C), the scratches healing rate in the control group was approximately 64%. By contrast, the cells treated with 4c have much smaller scratched areas recovery at all concentrations. […] Cell invasion is an important malignant behaviour during cancer metastasis. In Tanswell assay, MGC-803 cells were seeded into upper chambers with pre-coated Matrigel stimulating base membrane in order to assess the cellular invasion.
MGC-803 cells and HUVECs were seeded in 24-well plates and cultivated for 24 h at 37 °C. The cells were scribed vertically with a gun tip and washed with PBS to remove dead cells. The containing different concentrations of 4c were added to the scratched monolayers. The migrated cells were photographed under a light microscope at indicated time points from the scratch. Take a picture and use the image J software to calculate the area of the cell scratches.

tubulin = assay: Tubulin polymerisation assay in vitro; format: biochemical; details: 6 µM of 4c; colchicine 4 µM as positive control; fluorescence intensity
Description: The microtubule kinetic experiments were performed with 4 µM of colchicine as a positive control and 6 µM of 4c as the experimental group according to the method originally described by J. M. Andreu et al. with some modifications. Purified and unpolymerised tubulin was incubated with the tested compounds and the increased tendency of fluorescence intensity shown in control samples was obviously slowed down.

SMILES: COc1cc(C(=O)/C(F)=C/c2c[nH]c3cc(Br)ccc23)cc(OC)c1OC [4c, (Z)-3–(6-bromo-1H-indol-3-yl)-2-fluoro-1–(3,4,5-trimethoxyphenyl)prop-2-en-1-one]
- IC50 [1]: 680 ± 220 nM
- IC50 [2]: 1210 ± 17 nM
- IC50 [3]: 1050 ± 220 nM
- cleaved Caspase-3/-7/-9 expression [4]: up-regulation of cleaved Caspase-3/-7/-9
- percentage of cells in G2/M (MGC-803 cells [5]; 18 nM, control 32.15%): 50.47%
- percentage of cells in G2/M (MGC-803 cells [5]; 36 nM, 6 h): 30.37%
- percentage of cells in G2/M (MGC-803 cells [5]; 36 nM, control 32.15%): 83.65%
- percentage of cells in G2/M (MGC-803 cells [5]; 72 nM, control 32.15%): 90.21%
- embryo development and blood vessels ([6]; dose ≥ 5 µM): marked delay in development and only scattered or fragmentary blood vessels were observed
- lowest dose with anti-angiogenic phenotype ([6]; imaged at 30hpf): 2.5 µM
- number and length of intersegmental vessels (ISVs) ([6]; imaged at 30hpf, different doses): all dose-dependently reduced
- Cyclin B1 expression [7]: caused a decrease in Cyclin B1
- P21 expression [7]: increased the expression of tumour suppressor protein P21
- phosphorylation levels of Cdc2 [7]: decrease the phosphorylation levels of Cdc2 in a concentration-dependent manner
- migration rates (scratch healing) (MGC-803 cells [8]): 10%
- Effect on tubulin polymerisation in vitro (tubulin): exhibited a similar action to that of colchicine
